According to publication PMC2630805, “Anticancer Alkaloid Lamellarins Inhibit Protein Kinases” (Marine Drugs, 2008):
pIC50: −log10 of the molar value.

How the values were obtained:
FLT-3 kinase (h) = FLT-3 kinase (h) (Homo sapiens, UniProt P36888); assay: CEREP Kinase Selectivity Panel; type: biochemical; conditions: 10 μM lamellarin N
Ret kinase (h) = Ret kinase (h) (Homo sapiens, UniProt P07949); assay: CEREP Kinase Selectivity Panel; type: biochemical; conditions: 10 μM lamellarin N
CDK1/cyclin B = CDK1/cyclin B kinase assay (histone H1, P81 phosphocellulose); type: biochemical, starfish (Marthasterias glacialis); conditions: 15 μM ATP; cell '− (x)' = no inhibitory activity detected, x = highest concentration tested
Procedure: ATP (3,000 Ci/mmol; 1 mCi/ml) in a final volume of 30 μl. […] The wet filters were counted in the presence of 1 ml ACS (Amersham) scintillation fluid.

Brk (h) = Brk (h) (Homo sapiens, UniProt Q13882); assay: CEREP Kinase Selectivity Panel; type: biochemical; conditions: 10 μM lamellarin N
BMX kinase (h) (Etk) = BMX kinase (h) (Etk) (Homo sapiens, UniProt P51813); assay: CEREP Kinase Selectivity Panel; type: biochemical; conditions: 10 μM lamellarin N
Chain of BMX kinase (h) (Etk) (P51813 whole entry): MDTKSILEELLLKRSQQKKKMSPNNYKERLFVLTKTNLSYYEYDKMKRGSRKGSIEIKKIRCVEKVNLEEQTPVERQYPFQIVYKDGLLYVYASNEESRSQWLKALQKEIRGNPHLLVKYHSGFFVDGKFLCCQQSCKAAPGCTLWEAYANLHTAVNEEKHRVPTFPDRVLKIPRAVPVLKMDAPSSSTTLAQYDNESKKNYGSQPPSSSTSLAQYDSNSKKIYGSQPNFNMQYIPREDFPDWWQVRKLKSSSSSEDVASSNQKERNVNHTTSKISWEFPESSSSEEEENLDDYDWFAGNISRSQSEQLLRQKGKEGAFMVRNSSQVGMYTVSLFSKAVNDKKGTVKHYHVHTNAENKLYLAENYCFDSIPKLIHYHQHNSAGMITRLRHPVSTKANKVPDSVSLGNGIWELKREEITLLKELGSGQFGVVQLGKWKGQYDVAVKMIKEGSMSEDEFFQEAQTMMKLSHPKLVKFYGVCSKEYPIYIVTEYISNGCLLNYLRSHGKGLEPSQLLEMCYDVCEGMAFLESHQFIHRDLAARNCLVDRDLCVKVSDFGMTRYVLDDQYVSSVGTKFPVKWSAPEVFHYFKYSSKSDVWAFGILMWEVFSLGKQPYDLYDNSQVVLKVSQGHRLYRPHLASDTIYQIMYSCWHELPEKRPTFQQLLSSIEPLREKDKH

TRKA (h) = TRKA (h) (Homo sapiens, UniProt P04629); assay: CEREP Kinase Selectivity Panel; type: biochemical; conditions: 10 μM lamellarin N
SH-SY5Y cells = assay: Kinetics and dose-response of cell death (MTS reduction, LDH release, DEVDase caspase activity); type: cell-based, human; conditions: dose-response, doses as low as
Procedure: SH-SY5Y cells were next incubated with a range of lamellarin N concentrations or at 1 μM over 48 hrs. Cell survival was monitored by the MTS reduction assay, cell death was assessed by the LDH release assay and caspase activation was measured using DEVD as a substrate (Figure 1).
Figure 1. Dose- and time- dependent induction of cell death by lamellarin N. (A) Neuroblastoma SH-SY5Y cells were treated with lamellarin N at various concentrations. Cell death was measured by LDH release, cell survival was assessed by the MTS reduction assay, and caspase 3 activity was monitored as DEVDase activity. MTS and LDH assay were carried out 48 hours after treatment with lamellarin N. The caspase assay was carried out 24 hours after treatment. (B) Kinetics of cell survival, cell death and caspases activation following exposure of SH-SY5Y cells to 1 μM lamellarin N. Average of 3 independent experiments performed in triplicate. The standard deviation (±SD) is indicated by error bars.
SH-SY5Y human neuroblastoma cells were grown in DMEM supplemented with 2mM L-glutamine (Invitrogen, Cergy Pontoise, France), plus antibiotics (penicillin-streptomycin) and a 10% volume of fetal calf serum (FCS) (Invitrogen). Cell viability was determined by means of the MTS (3- (4,5-dimethylthiazol-2-yl)-5- (3-carboxymethoxyphenyl)-2- (4-sulfophenyl)-2H -tetrazolium) reduction method as previously described. […]

GSK-3α/ß = assay: GSK-3α/β kinase assay (GS-1 substrate); type: biochemical, porcine; conditions: 15 μM ATP; cell '− (x)' = no inhibitory activity detected, x = highest concentration tested
Excerpt: GSK-3 α/β was purified from porcine brain by affinity chromatography on immobilized axin [39].

p38α kinase (h) = p38α kinase (h) (Homo sapiens, UniProt Q16539); assay: CEREP Kinase Selectivity Panel; type: biochemical; conditions: 10 μM lamellarin N
ERK2 (h) (P42mapk) = ERK2 (h) (P42mapk) (Homo sapiens, UniProt P28482); assay: CEREP Kinase Selectivity Panel; type: biochemical; conditions: 10 μM lamellarin N
ROCK2 (h) = ROCK2 (h) (Homo sapiens, UniProt O75116); assay: CEREP Kinase Selectivity Panel; type: biochemical; conditions: 10 μM lamellarin N
Chain of ROCK2 (h) (O75116 whole entry): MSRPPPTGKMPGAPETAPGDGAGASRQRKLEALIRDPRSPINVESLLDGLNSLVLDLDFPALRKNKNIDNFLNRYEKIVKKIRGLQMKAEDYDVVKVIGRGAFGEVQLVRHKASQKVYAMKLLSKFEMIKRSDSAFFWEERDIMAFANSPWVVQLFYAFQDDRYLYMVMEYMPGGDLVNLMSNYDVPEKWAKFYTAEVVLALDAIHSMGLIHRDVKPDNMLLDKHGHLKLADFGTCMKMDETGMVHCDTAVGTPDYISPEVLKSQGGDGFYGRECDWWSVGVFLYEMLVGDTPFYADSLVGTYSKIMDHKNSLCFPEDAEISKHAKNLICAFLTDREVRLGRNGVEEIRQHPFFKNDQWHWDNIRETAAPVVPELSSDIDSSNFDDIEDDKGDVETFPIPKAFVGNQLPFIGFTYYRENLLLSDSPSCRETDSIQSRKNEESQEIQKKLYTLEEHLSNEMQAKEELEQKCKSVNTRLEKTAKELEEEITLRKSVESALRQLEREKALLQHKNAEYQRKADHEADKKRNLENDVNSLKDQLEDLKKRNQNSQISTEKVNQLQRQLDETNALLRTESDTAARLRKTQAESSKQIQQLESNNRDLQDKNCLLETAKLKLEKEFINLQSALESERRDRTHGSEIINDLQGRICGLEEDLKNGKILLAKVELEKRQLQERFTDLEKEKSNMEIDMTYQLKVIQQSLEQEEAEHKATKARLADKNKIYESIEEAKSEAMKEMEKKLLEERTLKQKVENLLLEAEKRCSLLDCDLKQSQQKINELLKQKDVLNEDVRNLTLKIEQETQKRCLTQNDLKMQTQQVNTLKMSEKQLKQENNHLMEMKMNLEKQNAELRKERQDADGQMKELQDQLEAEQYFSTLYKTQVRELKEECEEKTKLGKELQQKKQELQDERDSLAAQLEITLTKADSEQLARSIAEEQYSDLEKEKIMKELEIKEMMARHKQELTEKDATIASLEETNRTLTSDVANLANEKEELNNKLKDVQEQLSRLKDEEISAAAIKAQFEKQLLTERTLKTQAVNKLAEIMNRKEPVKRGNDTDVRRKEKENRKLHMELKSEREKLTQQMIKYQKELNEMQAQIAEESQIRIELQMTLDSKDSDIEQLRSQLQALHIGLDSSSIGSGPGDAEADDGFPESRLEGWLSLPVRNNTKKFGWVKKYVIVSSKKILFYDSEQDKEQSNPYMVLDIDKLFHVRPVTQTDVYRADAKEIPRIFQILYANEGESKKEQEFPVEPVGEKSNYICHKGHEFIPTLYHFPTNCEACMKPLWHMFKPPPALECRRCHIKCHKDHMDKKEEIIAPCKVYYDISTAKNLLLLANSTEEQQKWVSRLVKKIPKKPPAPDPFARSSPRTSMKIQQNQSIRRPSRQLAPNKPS

DYRK1A = DYRK1A (Rattus norvegicus, UniProt Q63470); assay: DYRK1A kinase assay (myelin basic protein)
Procedure: (§1) Blank values were subtracted and activities calculated as pmoles of phosphate incorporated during a 30 min. incubation. The activities were expressed in % of the maximal activity, i.e. in the absence of inhibitors. Controls were performed with appropriate dilutions of dimethylsulfoxide. Unless otherwise stated, the P81 phosphocellulose assay was used.
DYRK1A was expressed as a GST fusion protein in E. coli (vector kindly provided by Dr. W. Becker, Institute for Pharmacology and Toxicology, Aachen, Germany) and affinity purified on glutathione-agarose. […] ATP in a final volume of 30 μl. After 30 min incubation at 30°C, 25 μl aliquots of supernatant were treated as described above.

CHK1 (h) = CHK1 (h) (Homo sapiens, UniProt O14757); assay: CEREP Kinase Selectivity Panel; type: biochemical; conditions: 10 μM lamellarin N
Chain of CHK1 (h) (O14757 whole entry): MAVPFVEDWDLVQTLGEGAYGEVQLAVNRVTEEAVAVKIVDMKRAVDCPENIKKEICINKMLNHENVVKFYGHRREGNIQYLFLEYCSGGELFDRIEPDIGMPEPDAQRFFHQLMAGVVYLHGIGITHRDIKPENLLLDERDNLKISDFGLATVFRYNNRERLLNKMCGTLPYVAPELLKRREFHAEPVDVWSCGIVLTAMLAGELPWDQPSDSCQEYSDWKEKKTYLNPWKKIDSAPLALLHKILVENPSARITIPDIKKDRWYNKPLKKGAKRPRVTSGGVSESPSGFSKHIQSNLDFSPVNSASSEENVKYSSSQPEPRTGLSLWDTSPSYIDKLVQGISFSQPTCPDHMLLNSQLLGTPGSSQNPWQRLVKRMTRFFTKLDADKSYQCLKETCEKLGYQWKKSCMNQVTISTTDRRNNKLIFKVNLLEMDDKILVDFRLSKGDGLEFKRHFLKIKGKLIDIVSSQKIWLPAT

[1] = system: human neuroblastoma SH-SY5Y cells; assay: SH-SY5Y cell survival, MTS reduction assay; type: cell-based; conditions: read-out: IC50 SH-SY5Y cell survival
Procedure: We next tested the effects of each lamellarin, at an initial 10 μM concentration, on the survival of the neuroblastoma SH-SY5Y cell line after 48 h exposure (Table 2). Cell survival was estimated by the MTS reduction assay.
SH-SY5Y human neuroblastoma cells were grown in DMEM supplemented with 2mM L-glutamine (Invitrogen, Cergy Pontoise, France), plus antibiotics (penicillin-streptomycin) and a 10% volume of fetal calf serum (FCS) (Invitrogen). Cell viability was determined by means of the MTS (3- (4,5-dimethylthiazol-2-yl)-5- (3-carboxymethoxyphenyl)-2- (4-sulfophenyl)-2H -tetrazolium) reduction method as previously described. Cell death was (also) assayed by LDH release. Lactate dehydrogenase is a stable cytosolic enzyme that is released upon cell lysis. SH-SY5Y cells were also subjected to caspase activity assays. These are based on cleavage of a synthetic caspase substrate DEVD (MP Biomedicals, 199423), a subtrate of active caspase 3/6/7. The assay was carried out according to manufacturer’s instructions.

JNK 2 (h) = JNK 2 (h) (Homo sapiens, UniProt P45984); assay: CEREP Kinase Selectivity Panel; type: biochemical; conditions: 10 μM lamellarin N
Chain of JNK 2 (h) (P45984 whole entry): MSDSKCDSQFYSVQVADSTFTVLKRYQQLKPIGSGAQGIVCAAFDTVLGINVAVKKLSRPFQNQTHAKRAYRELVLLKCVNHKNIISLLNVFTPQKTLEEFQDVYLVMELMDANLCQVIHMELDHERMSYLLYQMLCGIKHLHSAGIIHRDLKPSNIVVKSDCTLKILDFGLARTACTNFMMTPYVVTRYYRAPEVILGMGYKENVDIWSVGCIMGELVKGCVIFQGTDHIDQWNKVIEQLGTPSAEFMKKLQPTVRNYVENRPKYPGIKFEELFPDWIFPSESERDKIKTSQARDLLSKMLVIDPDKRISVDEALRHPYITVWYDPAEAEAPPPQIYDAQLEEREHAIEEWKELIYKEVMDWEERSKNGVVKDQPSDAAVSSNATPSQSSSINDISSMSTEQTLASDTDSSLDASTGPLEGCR

[2] = system: CDK1/cyclin B, CDK5/p25, GSK-3α/ß, PIM-1, DYRK1A, CK1; assay: Kinase assay panel, structure/activity comparison; type: biochemical; conditions: transposition of substitutions at R3 and R4 of lamellarin D
Procedure: All compounds were run on our kinase assay panel comprising CDK1/cyclin B, CDK5/p25, GSK-3α/ß, PIM-1, DYRK1A, CK1.
Kinase activities were assayed in buffer A (10 mM MgCl2, 1 mM EGTA, 1 mM DTT, 25 mM Tris-HCl pH 7.5, 50 μg heparin/ml) or C (60 mM β-glycerophosphate, 15 mM p-nitrophenyl phosphate, 25 mM MOPS (pH 7.2), 5 mM EGTA, 15 mM MgCl2, 1 mM dithiothreitol, 1 mM sodium vanadate, 1 mM phenylphosphate, 0.1 % Nonidet P-40), at 30°C, at a final ATP concentration of 15 μM. Blank values were subtracted and activities calculated as pmoles of phosphate incorporated during a 30 min. incubation. The activities were expressed in % of the maximal activity, i.e. in the absence of inhibitors. Controls were performed with appropriate dilutions of dimethylsulfoxide. Unless otherwise stated, the P81 phosphocellulose assay was used.

CDK5/p25 = CDK5/p25 (Homo sapiens, UniProt Q00535); assay: CDK5/p25 kinase assay (histone H1)
Chain of CDK5/p25 (Q00535 whole entry): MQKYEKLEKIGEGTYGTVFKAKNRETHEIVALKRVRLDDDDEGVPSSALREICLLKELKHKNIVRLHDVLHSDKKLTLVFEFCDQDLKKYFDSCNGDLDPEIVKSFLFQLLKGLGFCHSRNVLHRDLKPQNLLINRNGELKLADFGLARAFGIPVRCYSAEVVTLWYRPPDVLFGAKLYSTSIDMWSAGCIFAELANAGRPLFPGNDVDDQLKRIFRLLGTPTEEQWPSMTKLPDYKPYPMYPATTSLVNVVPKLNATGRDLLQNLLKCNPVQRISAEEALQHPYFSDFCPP
Chain of CDK5/p25 (Q15078 99-307 partner limits assumed): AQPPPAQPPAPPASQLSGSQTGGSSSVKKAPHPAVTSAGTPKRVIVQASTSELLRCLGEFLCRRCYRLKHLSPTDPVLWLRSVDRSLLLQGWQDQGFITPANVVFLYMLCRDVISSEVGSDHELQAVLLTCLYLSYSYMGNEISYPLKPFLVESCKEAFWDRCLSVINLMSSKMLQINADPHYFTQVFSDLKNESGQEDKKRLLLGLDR
Procedure: as §1
Its activity was assayed with histone H1 in buffer C as described for CDK1/cyclin B.

RSK2 (h) = RSK2 (h) (Homo sapiens, UniProt P51812); assay: CEREP Kinase Selectivity Panel; type: biochemical; conditions: 10 μM lamellarin N
PKCβ 1 (h) = PKCβ 1 (h) (Homo sapiens, UniProt P05771); assay: CEREP Kinase Selectivity Panel; type: biochemical; conditions: 10 μM lamellarin N
Chain of PKCβ 1 (h) (P05771 whole entry): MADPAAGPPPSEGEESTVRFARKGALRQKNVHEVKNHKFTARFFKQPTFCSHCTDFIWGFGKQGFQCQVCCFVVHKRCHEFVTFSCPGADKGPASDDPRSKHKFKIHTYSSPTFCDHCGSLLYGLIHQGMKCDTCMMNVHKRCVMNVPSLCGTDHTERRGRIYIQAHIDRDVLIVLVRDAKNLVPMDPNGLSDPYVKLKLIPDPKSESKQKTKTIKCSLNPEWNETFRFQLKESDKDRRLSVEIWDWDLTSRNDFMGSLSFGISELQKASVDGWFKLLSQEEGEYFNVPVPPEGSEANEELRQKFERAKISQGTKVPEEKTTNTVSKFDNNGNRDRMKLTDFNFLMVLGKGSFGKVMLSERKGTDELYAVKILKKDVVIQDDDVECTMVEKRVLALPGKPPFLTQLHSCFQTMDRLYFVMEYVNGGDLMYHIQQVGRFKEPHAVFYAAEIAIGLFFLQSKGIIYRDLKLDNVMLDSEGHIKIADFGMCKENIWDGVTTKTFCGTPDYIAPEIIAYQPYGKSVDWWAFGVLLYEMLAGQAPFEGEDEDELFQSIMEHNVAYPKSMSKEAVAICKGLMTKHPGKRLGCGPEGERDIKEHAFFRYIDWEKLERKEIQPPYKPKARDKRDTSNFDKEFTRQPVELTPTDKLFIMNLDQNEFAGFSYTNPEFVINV

CHK2 (h) = CHK2 (h) (Homo sapiens, UniProt O96017); assay: CEREP Kinase Selectivity Panel; type: biochemical; conditions: 10 μM lamellarin N
Chain of CHK2 (h) (O96017 whole entry): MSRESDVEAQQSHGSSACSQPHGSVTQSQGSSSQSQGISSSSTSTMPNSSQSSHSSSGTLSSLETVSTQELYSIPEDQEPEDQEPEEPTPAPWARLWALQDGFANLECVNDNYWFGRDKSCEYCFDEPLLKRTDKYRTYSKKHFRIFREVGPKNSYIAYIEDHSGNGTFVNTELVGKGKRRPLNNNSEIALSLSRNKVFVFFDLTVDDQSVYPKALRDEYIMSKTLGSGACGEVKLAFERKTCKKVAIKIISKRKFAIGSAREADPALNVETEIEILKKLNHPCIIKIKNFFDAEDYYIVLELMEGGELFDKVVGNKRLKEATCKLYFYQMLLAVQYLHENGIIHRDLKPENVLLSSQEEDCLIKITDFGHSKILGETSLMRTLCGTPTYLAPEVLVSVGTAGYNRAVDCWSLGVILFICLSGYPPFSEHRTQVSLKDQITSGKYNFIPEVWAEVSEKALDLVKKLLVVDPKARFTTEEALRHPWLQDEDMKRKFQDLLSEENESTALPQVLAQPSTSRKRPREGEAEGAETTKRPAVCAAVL

AMPKα = assay: CEREP Kinase Selectivity Panel; type: biochemical; conditions: 10 μM lamellarin N

## COc1ccc(-c2c3c4cc(OC)c(O)cc4oc(=O)c3n3ccc4cc(O)c(OC)cc4c23)cc1O [Compound 6, lamellarin N]
FLT-3 kinase (h)
  Activity (% of control): 0.4 % of control
Ret kinase (h)
  Activity (% of control): 1.8 % of control
CDK1/cyclin B
  pIC50: 7.15
Brk (h)
  Activity (% of control): 72.8 % of control
BMX kinase (h) (Etk)
  Activity (% of control): 60.8 % of control
TRKA (h)
  Activity (% of control): 0.8 % of control
SH-SY5Y cells
  lowest dose at which cells start dying: 0.05 µM
GSK-3α/ß
  pIC50: 8.30
p38α kinase (h)
  Activity (% of control): 97.4 % of control
ERK2 (h) (P42mapk)
  Activity (% of control): 79.9 % of control
ROCK2 (h)
  Activity (% of control): 103.3 % of control
DYRK1A
  pIC50: 7.46
CHK1 (h)
  Activity (% of control): 93.3 % of control
[1]
  pIC50: 7.60
JNK 2 (h)
  Activity (% of control): 15.7 % of control
[2]
  enhancement of kinase inhibitory activity relative to lamellarin D: 10 fold
CDK5/p25
  pIC50: 7.60
RSK2 (h)
  Activity (% of control): 44.5 % of control
PKCβ 1 (h)
  Activity (% of control): 102.0 % of control
CHK2 (h)
  Activity (% of control): 47.6 % of control
AMPKα
  Activity (% of control): 42.4 % of control
